Measurements published in patent US8680275B2, “Fused heterocyclic compounds as orexin receptor modulators” (Janssen Pharmaceutica NV, priority 2009, dated 2014).

Experiments:
human orexin-2 receptor = human orexin-2 receptor (Homo sapiens (Human), UniProt O43614); test: Human orexin 2 receptor radioligand binding ([3H]-EMPA competition); conditions: HEK293 cells stably expressing human orexin-2 receptor; [3H]-EMPA 5 nM final; read-out: OR-2 Ki
Description: (§1) The in vitro affinity of the compounds for the human orexin-1 and orexin-2 receptors was determined by competitive radioligand binding using [^3H]SB SB674042 (1-(5-(2-fluoro-phenyl)-2-methyl-thiazol-4-yl)-1-((S)-2-(5-phenyl-(1,3,4)oxadiazol-2-ylmethyl)-pyrrolidin-1-yl)methanone) (Langmead et al., British Journal of Pharmacology 2004, 141:340-346.) and [^3H]EMPA (N-ethyl-2[(6-methoxy-pyridin-3-yl)-(toluene-2-sulfonyl)-amino]-N-pyridin-3-ylmethyl acetamide) (Malherbe et al., British Journal of Pharmacology, 2009, 156(8), 1326-1341), respectively.
Human Orexin 2 Receptor Radioligand Binding Studies
HEK293 stably expressing human orexin-2 receptor (Genebank accession number NM_001526) were grown to confluency in DMEM/F12 (Gibco, Cat #11039), in DMEM, 10% FBS, 1× Pen/Strep, 1× NaPyruvate, 1×HEPES, 600 ug/ml G418 media on 150 cm^2 tissue culture plates, washed with 5 mM EDTA in PBS (HyClone Dulbecco's Phosphate Buffered Saline 1× with Calcium and Magnesium, Cat #SH30264.01, hereafter referred to simply as PBS) and scraped into 50 ml tubes. After centrifugation (2K xG, 10 min at 4° C.), the supernatant was aspirated and the pellets frozen and stored at −80° C. Cells were resuspended in PBS in the presence of 1 tablet of protease inhibitor cocktail (Roche, Cat. #11836145001) per 50 mL. […] Competition binding experiments in 96 well polypropylene plates were performed using [^3H]-EMPA (Moravek Corporation, specific activity=27 Ci/mmol), diluted to a […] concentration in PBS (5 nM final concentration). Compounds were solubilized in 100% DMSO (Acros Organics, Cat. #61042-1000) and tested over a range of 7 concentrations (from 0.1 nM to 10 μM). The final concentration of DMSO in the reactions is equal to or less than 0.1%. Total and nonspecific binding was determined in the absence and presence of 10 μM (N-[2-(3,4-dimethoxyphenyl)ethyl]-N-methylnaphthalene-1-carboxamide, CAS Registry #1089563-88-1). The total volume of each reaction is 200 μL (20 μL of diluted compounds, 80 μL of [^3H]-EMPA diluted in PBS and 100 μL of the cell suspension). Reactions were run for 60 min at room temperature and terminated by filtration through GF/C filter plates (PerkinElmer, Cat. #6005174) presoaked in 0.3% polyethylenimine using the cell harvester (Perkin Elmer Filtermate). The plates were washed 3 times by aspirating 30 ml PBS through the plates. Plates were dried in 55° C. oven for 60 min, scintillation fluid was added, and the radioactivity was counted on a Topcount (Packard).

human orexin 1 receptor = human orexin 1 receptor (Homo sapiens (Human), UniProt O43613); test: Human orexin 1 receptor radioligand binding ([3H]-SB674042 competition); conditions: CHO cells stably expressing human orexin 1 receptor; [3H]-SB674042 4 nM final; read-out: OR-1 Ki
Sequence of human orexin 1 receptor (O43613 whole entry): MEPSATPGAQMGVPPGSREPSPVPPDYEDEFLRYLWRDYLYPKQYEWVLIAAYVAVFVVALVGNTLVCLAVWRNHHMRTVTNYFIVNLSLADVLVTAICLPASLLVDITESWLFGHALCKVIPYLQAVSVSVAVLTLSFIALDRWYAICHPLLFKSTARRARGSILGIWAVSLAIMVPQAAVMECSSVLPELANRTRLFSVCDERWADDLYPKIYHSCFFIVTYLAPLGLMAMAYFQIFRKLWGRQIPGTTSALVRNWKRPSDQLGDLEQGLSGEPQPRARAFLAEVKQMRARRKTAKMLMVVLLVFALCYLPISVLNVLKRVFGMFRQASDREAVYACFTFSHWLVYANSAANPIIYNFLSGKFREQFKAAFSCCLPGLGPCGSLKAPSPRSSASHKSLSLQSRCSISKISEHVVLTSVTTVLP
Description: as §1
Human Orexin 1 Receptor Radioligand Binding Studies
Chinese ovary cells (CHO) stably expressing human orexin 1 receptor (Genebank accession number NM_001526) were grown to confluency in DMEM/F12 (Gibco, Cat #11039), 10% FBS, 1× Pen/Strep, 600 μg/mL G418 media on 150 cm^2 tissue culture plates, washed with 5 mM EDTA in PBS (HyClone Dulbecco's Phoshpate Buffered Saline 1× with Calcium and Magnesium, Cat #SH30264.01, hereafter referred to simply as PBS) and scraped into 50 ml tubes. After centrifugation (2K xG, 10 min at 4° C.), the supernatant was aspirated and the pellets frozen and stored at −80° C. Cells were resuspended in PBS in the presence of 1 tablet of protease inhibitor cocktail (Roche, Cat. #11836145001) per 50 mL. […] Compounds were solubilized in 100% DMSO (Acros Organics, Cat. #61042-1000) and tested over a range of 7 concentrations (from 0.1 nM to 10 μM). The final concentration of DMSO in the reactions is equal to or less than 0.1%. Total and nonspecific binding was determined in the absence and presence of 10 μM (1-(6,8-difluoro-2-methylquinolin-4-yl)-3-[4-(dimethylamino)phenyl]urea, CAS Registry #288150-92-5). The total volume of each reaction is 200 μL (20 μL of diluted compounds, 80 μL of [^3H]-SB674042 diluted in PBS and 100 μL of the cell suspension). Reactions were run for 60 min at room temperature and terminated by filtration through GF/C filter plates (PerkinElmer, Cat. #6005174) presoaked in 0.3% polyethylenimine using the cell harvester (PerkinElmer Filtermate). The plates were washed 3 times by aspirating 30 ml PBS through the plates. Plates were dried in 55° C. oven for 60 min, scintillation fluid was added, and the radioactivity was counted on a Topcount (Packard).

Sequence of human orexin-2 receptor (O43614 whole entry): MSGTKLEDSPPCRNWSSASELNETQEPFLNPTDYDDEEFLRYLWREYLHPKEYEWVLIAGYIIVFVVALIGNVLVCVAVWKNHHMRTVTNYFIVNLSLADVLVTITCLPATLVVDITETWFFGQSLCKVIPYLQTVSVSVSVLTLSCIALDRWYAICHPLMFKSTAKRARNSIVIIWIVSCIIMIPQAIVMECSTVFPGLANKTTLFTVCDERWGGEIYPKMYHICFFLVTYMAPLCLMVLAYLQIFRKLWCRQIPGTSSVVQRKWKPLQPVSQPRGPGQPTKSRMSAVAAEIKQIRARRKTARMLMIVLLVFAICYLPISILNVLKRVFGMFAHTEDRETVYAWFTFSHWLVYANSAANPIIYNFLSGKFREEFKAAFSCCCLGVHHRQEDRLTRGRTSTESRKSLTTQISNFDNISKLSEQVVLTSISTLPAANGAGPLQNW

| Compound | Ki (human orexin-2 receptor) [nM] | Ki (human orexin 1 receptor) [nM] |
| --- | --- | --- |
| CN(C)c1nc(N2C[C@@H]3CCN(C(=O)c4cc(F)ccc4-n4nccn4)C[C@@H]32)cc(C(F)(F)F)n1 [Example 46, (1R,6S)-[8-(2-Dimethylamino-6-trifluoromethyl-pyrimidin-4-yl)-3,8-diaza-bicyclo[4.2.0]oct-3-yl]-(5-fluoro-2-[1,2,3]triazol-2-yl-phenyl)-methanone] | 15 | 47 |
| Cc1cc(C)nc(N2C[C@@H]3CCN(C(=O)c4cc(F)ccc4-c4ccn[nH]4)C[C@@H]32)n1 [Example 171, (1R,6S)-8-(4,6-dimethylpyrimidin-2-yl)-3-{[5-fluoro-2-(1H-pyrazol-3-yl)phenyl]carbonyl}-3,8-diazabicyclo[4.2.0]octane] | 15 | 392 |
| Cc1cncc(N2C[C@@H]3CCN(C(=O)c4ccccc4-n4nccn4)C[C@@H]32)n1 [Example 112, (1R,6S)-8-(6-Methylpyrazin-2-yl)-3-{[2-(2H-1,2,3-triazol-2-yl)phenyl]carbonyl}-3,8-diazabicyclo[4.2.0]octane] | 115 | 1960 |
| Cc1cnc(N2C[C@@H]3CCN(C(=O)c4ccc(F)cc4-n4nccn4)C[C@@H]32)cn1 [Example 102, (1R,6S)-3-{[4-Fluoro-2-(2H-1,2,3-triazol-2-yl)phenyl]carbonyl}-8-(5-methylpyrazin-2-yl)-3,8-diazabicyclo[4.2.0]octane] | 420 | 10000 |
| O=C(c1ccccc1-c1ccccc1)N1CCC2CN(c3nccc(-c4ccccc4)n3)C2C1 (stereo not shown) [Example 9, Biphenyl-2-yl-[8-(4-phenyl-pyrimidin-2-yl)-3,8-diaza-bicyclo[4.2.0]oct-3-yl]-methanone] | 33 | 22 |
| Cc1cc(C)nc(N2C[C@@H]3CCN(C(=O)c4cccc(C)c4-n4nccn4)C[C@@H]32)n1 [Example 135, (1R,6S)-8-(4,6-Dimethylpyrimidin-2-yl)-3-{[3-methyl-2-(2H-1,2,3-triazol-2-yl)phenyl]carbonyl}-3,8-diazabicyclo[4.2.0]octane] | 15 | 135 |
| CNc1cc(N2C[C@@H]3CCN(C(=O)c4cc(F)ccc4-n4nccn4)C[C@@H]32)ncn1 [Example 190, 6-[(1R,6S)-3-{[5-Fluoro-2-(2H-1,2,3-triazol-2-yl)phenyl]carbonyl}-3,8-diazabicyclo[4.2.0]oct-8-yl]-N-methylpyrimidin-4-amine] | 1100 | 10000 |
| Cc1cc(C)nc(N2C[C@@H]3CCN(C(=O)c4cccc5c4-c4ccccc4C5=O)C[C@@H]32)n1 [Example 168, 4-{[(1R,6S)-8-(4,6-Dimethylpyrimidin-2-yl)-3,8-diazabicyclo[4.2.0]oct-3-yl]carbonyl}-9H-fluoren-9-one] | 740 | 7300 |
| Cc1cccc(C(=O)N2CC[C@H]3CN(c4cc(N(C)C)ccn4)[C@H]3C2)c1-n1nccn1 [Example 141, N,N-Dimethyl-2-[(1R,6S)-3-{[3-methyl-2-(2H-1,2,3-triazol-2-yl)phenyl]carbonyl}-3,8-diazabicyclo[4.2.0]oct-8-yl]pyridin-4-amine] | 734 | 9000 |
| Cc1nc(N2C[C@@H]3CCN(C(=O)c4ccccc4-n4nccn4)C[C@@H]32)nc(C)c1C [Example 270, (1R,6S)-3-{[2-(2H-1,2,3-Triazol-2-yl)phenyl]carbonyl}-8-(4,5,6-trimethylpyrimidin-2-yl)-3,8-diazabicyclo[4.2.0]octane] | 11 | 16 |
| Cc1onc(-c2ccccc2)c1C(=O)N1CC[C@H]2CN(c3ccnc(-c4ccccc4)n3)[C@H]2C1 [Example 197, (5-Methyl-3-phenylisoxazol-4-yl)((1R,6S)-8-(2-phenylpyrimidin-4-yl)-3,8-diazabicyclo[4.2.0]octan-3-yl)methanone] | 3100 | 2600 |
| Cc1cc(C)nc(N2C[C@@H]3CCN(C(=O)c4ncccc4-n4nccn4)C[C@@H]32)n1 [Example 183, (1R,6S)-8-(4,6-Dimethylpyrimidin-2-yl)-3-{[3-(2H-1,2,3-triazol-2-yl)pyridin-2-yl]carbonyl}-3,8-diazabicyclo[4.2.0]octane] | 200 | 10000 |
| Cc1cc(C)nc(N2CC3CN(C(=O)c4ccccc4-n4nccn4)CC32)n1 (stereo not shown) [Example 66, 6-(4,6-Dimethylpyrimidin-2-yl)-3-{[2-(2H-1,2,3-triazol-2-yl)phenyl]carbonyl}-3,6-diazabicyclo[3.2.0]heptane] | 163 | 9650 |
| COc1ccc(-n2nccn2)c(C(=O)N2CC[C@H]3CN(c4cc(C)ccn4)[C@H]3C2)c1 [Example 139, (1R,6S)-3-{[5-Methoxy-2-(2H-1,2,3-triazol-2-yl)phenyl]carbonyl}-8-(4-methylpyridin-2-yl)-3,8-diazabicyclo[4.2.0]octane] | 208 | 6500 |
| Cc1ccc(N2C[C@@H]3CCN(C(=O)c4cc(F)ccc4-n4nccn4)C[C@@H]32)nc1 [Example 131, (1R,6S)-3-{[5-Fluoro-2-(2H-1,2,3-triazol-2-yl)phenyl]carbonyl}-8-(5-methylpyridin-2-yl)-3,8-diazabicyclo[4.2.0]octane] | 250 | 1600 |
| COc1ccc(C(=O)N2CC[C@H]3CN(c4cc(C)cc(C)n4)[C@H]3C2)c(-n2nccn2)c1 [Example 149, (1R,6S)-8-(4,6-Dimethylpyridin-2-yl)-3-{[4-methoxy-2-(2H-1,2,3-triazol-2-yl)phenyl]carbonyl}-3,8-diazabicyclo[4.2.0]octane] | 190 | 10000 |
| Cc1ccnc(N2CC3CN(C(=O)c4ccccc4-c4cccs4)CC32)n1 (stereo not shown) [Example 60, 6-(4-Methylpyrimidin-2-yl)-3-[(2-thiophen-2-ylphenyl)carbonyl]-3,6-diazabicyclo[3.2.0]heptane] | 188 | 10000 |
| COc1ccc(C(=O)N2CC[C@H]3CN(c4cc(C(F)(F)F)ccn4)[C@H]3C2)c(-n2nccn2)c1 [Example 146, (1R,6S)-3-{[4-Methoxy-2-(2H-1,2,3-triazol-2-yl)phenyl]carbonyl}-8-[4-(trifluoromethyl)pyridin-2-yl]-3,8-diazabicyclo[4.2.0]octane] | 299 | 9000 |
| O=C(c1ccc(F)cc1-n1nccn1)N1CC[C@H]2CN(c3cnc4ccccc4n3)[C@H]2C1 [Example 115, 2-[(1R,6S)-3-{[4-Fluoro-2-(2H-1,2,3-triazol-2-yl)phenyl]carbonyl}-3,8-diazabicyclo[4.2.0]oct-8-yl]quinoxaline] | 60 | 177 |
| O=C(c1ccccc1-c1ccccc1)N1CC2CN(c3cnc4ccccc4n3)C2C1 (stereo not shown) [Example 48, 2-[3-(Biphenyl-2-ylcarbonyl)-3,6-diazabicyclo[3.2.0]hept-6-yl]quinoxaline] | 179 | 258 |
